From patent publication US5716950A, “Diazacycloalkanealkylsulfonamide derivatives” (Nippon Shoji Kabushiki Kaisha, priority 1994, dated 1998)
Where two headings read alike, the source gives them in different places.

Experiments:
male ICR mice = experiment: Toxicity Test (mouse acute toxicity, minimum lethal dose); assay type: in vivo; details: po, observed for 24 hours, head prints (10 mg/kg-po)
Source text: The test compounds were orally administered to male ICR mice (weighing to 30 g) after fasting overnight. […] The results were expressed by minimum lethal dose. Toxicity of any compounds of the present invention were weaker than that of ketotifen which was a reference compound.

[1] = system: extracted ileum (histamine contraction); experiment: Antihistaminic activity: suppression of histamine-induced contraction of extracted ileum; parameters: species or system Female Hartley guinea pig; details: histamine 3×10^-7 M; guinea pig ileum; 50% suppression of contraction; read-out: anti-His in extracted ileum EC50
Procedure: Female Hartley guinea pig (weighing 500 to 650 g) were sacrificed and the ileum (length of about 10 to 25 cm) was extracted from the ileocecum to prepare a specimen (length of 3 cm). […] After allowing to stand for 60 minutes to make the specimen stable, a histamine (3×10^-7 M) was applied to the specimen at single application. Contraction of the specimen was determined and recorded using isotonic transducer. After repeating application of a histamine to make the contraction constant, a diluted solution of the test compound was applied. Three minutes after the application, a histamine was then added and an activity of suppressing contraction was examined.

[2] = system: passive cutaneous anaphylaxis (PCA); experiment: Activity of suppressing passive cutaneous anaphylaxis (PCA); assay type: in vivo, Male Wistar rats
Procedure: Test compounds were examined on their antiallergic activities. […] After 48 hours, 1.0 ml of 0.5 % Evans Blue saline solution containing DNP.BSA (1 mg in protein) was injected through the tail vein to induce allergic reaction. After 30 minutes, the rats were sacrificed by bleeding and the skin of back where dye was leaked out was flayed and put it into 20 ml test tube with ground stopper. Thereto was added 1.0 ml of 1N KOH aqueous solution and then it was allowed to stand at 37° C. in incubator overnight for lysing. To this solution was added 8.3 ml of a mixture of acetone and 0.6N phosphoric acid (13:5) and the mixture was mixed well and then was filtered to remove the insoluble materials.
The test compounds were administered orally 1 hour before the antigen challenge. Suppression rate was expressed by percentage to the value in control where 0.5% aqueous methylcellulose solution was orally administered.

[3] = system: mouse biphasic allergic dermal reaction; experiment: Mouse Biphasic Allergic Dermal Reaction; assay type: in vivo, Female Balb/c mice; details: for inhibition in vivo at 1 mg/kg / inhibition in vivo at 0.1 mg/kg / inhibition in vivo at 3 mg/kg / inhibition in vivo at 10 mg/kg / inhibition in vivo at 30 mg/kg: Mus musculus; for suppression of the late allergic reaction (in words): edema after 24 hours; for suppression of the immediate allergic reaction (in words): edema after 1 hour
Procedure: Female Balb/c mice (weighing 18 to 25 g) were subjected to passive sensitization by intravenous administration of 1 ml of anti-DNP monoclonal IgE antibody showing 1:1024 of antibody titer. 24 hours after the sensitization, 25 μl of 0.15% dinitrofluorobenzene (DNFB) were applied to both sides of right and left auricles of mouse for inducing allergic reactions. Thickness of auricles were measured using Dial Thickness Gauge before the challenge with DNFB, and 1 and 24 hours after the challenge. And then, increase in thickness of auricles at 1 hour after the challenge (edema caused by immediate allergic reaction) and that at 24 hours after the challenge (edema caused by late allergic reaction) were calculated against the thickness of auricles before the challenge with DNFB, respectively.
Suppression rate was expressed by relative ratio (%) to the value in control in which a solvent was administered.
Test compounds, diphenhydramine which is a existing classical antihistamic drug, amlexanox which is an antiallergic drug and dexamethasone which is a steroidal drug were administered orally (partly intraperitoneally) once before antigen challenge.
The above test was performed by using a mouse biphasic allergic dermal reaction model which was a new model [see, Sakurai T, Inagaki, N. and Nagai, H Life Sci., 54, PL291-295 (1994)]. In this model, the immediate allergic reaction was induced by mediator release from mast cell at 1 hour after the challenge, and the late allergic reaction with inflammatory cells such as eosinophil (edema after 24 hours) was induced after 24 hours from the challenge.

[4] = Rattus norvegicus, po, 1 h, 10 mg/kg-po, 1 hour before antigen challenge, read-out: % suppression of rat PCA
[5] = 1 h, 1.0 mg/kg, oral, read-out: immediate edema (1 hr) suppression (%)
[6] = 24 h, 0.1 mg/kg, oral, read-out: late edema (24 hr) suppression (%)
[7] = 24 h, 1.0 mg/kg, oral, read-out: late edema (24 hr) suppression (%)
[8] = po, 1 h, read-out: immediate edema (1 hr) suppression (%)
[9] = po, 24 h, read-out: late edema (24 hr) suppression (%)

Structure (SMILES) | EC50 [1] [µM] | inhibition in vivo at 10 mg/kg [2, 4] [%] | other results
NS(=O)(=O)CCCCCCN1CCN(C(c2ccccc2)c2ccc(Cl)cc2)CC1 (stereo not shown) [Example 3] | 0.76 | 95.2 | mouse acute toxicity (lethal dose) (male ICR mice): > 500 mg/kg
NS(=O)(=O)CCCCCCCCN1CCN(C(c2ccccc2)c2ccc(Cl)cc2)CC1 (stereo not shown) [Example 4] | 0.65 | 89 | mouse acute toxicity (lethal dose) (male ICR mice): > 500 mg/kg
NS(=O)(=O)CCCCCCCCN1CCN(C(c2ccc(F)cc2)c2ccccn2)CC1 (stereo not shown) [Example 13] | 0.32 | 73.8 | mouse acute toxicity (lethal dose) (male ICR mice): > 500 mg/kg
CNS(=O)(=O)CCCCCCN1CCN(C(c2ccccc2)c2ccc(Cl)cc2)CC1 (stereo not shown) [Example 21] | 0.51 | 89.7 | mouse acute toxicity (lethal dose) (male ICR mice): > 500 mg/kg
CNS(=O)(=O)CCCCCCN1CCN(C(c2ccc(F)cc2)c2ccccn2)CC1 (stereo not shown) [Example 26] | 0.3 | 71 | mouse acute toxicity (lethal dose) (male ICR mice): > 500 mg/kg
CCNS(=O)(=O)CCCCCCCCN1CCN(C(c2ccc(F)cc2)c2ccccn2)CC1 (stereo not shown) [Example 34] | 0.33 | 84.8 | –
O=S(=O)(CCCCCCCCN1CCN(C(c2ccc(F)cc2)c2ccccn2)CC1)NC1CC1 (stereo not shown) [Example 57] | 0.39 | 90.6 | inhibition in vivo at 1 mg/kg [3, 5]: 31.6%; inhibition in vivo at 0.1 mg/kg [3, 6]: 7.7%; inhibition in vivo at 1 mg/kg [3, 7]: 46.2%; suppression of the late allergic reaction (in words) [3]: showed strong activity of suppressing the late allergic reaction
O=S(=O)(CCCCCCCCCCN1CCN(C(c2ccc(F)cc2)c2ccccn2)CC1)NC1CC1 (stereo not shown) [Example 58] | 0.35 | 76.5 | –
CN(C)S(=O)(=O)CCCCCCN1CCN(C(c2ccccc2)c2ccc(F)cc2)CC1 (stereo not shown) [Example 68] | 0.37 | 94.5 | –
CN(C)S(=O)(=O)CCCCCCN1CCN(C(c2ccc(F)cc2)c2ccccn2)CC1 (stereo not shown) [Example 82] | 0.79 | 86.8 | –
CC(C)NS(=O)(=O)CCCCCN1CCN(C(c2ccccc2)c2ccc(Cl)cc2)CC1 (stereo not shown) [Example 110] | 0.57 | 88.3 | –
NS(=O)(=O)CCCCCCN1CCN(C(c2ccccc2)c2ccc(Cl)cc2)CC1 (stereo not shown) [Example 153, potassium 6-[[4-(4-chlorophenyl)phenylmethyl]-1-piperazinyl]hexylsulfonamide] | – | – | mouse acute toxicity (lethal dose) (male ICR mice): > 500 mg/kg; % suppression of rat PCA ([2]; 10 mg/kg-po, 1 hour before antigen challenge): 86.2%; inhibition in vivo at 0.1 mg/kg ([3]; 1 h, 0.1 mg/kg, oral, read-out: immediate edema (1 hr) suppression (%)): 24%; inhibition in vivo at 1 mg/kg [3, 5]: 56%; inhibition in vivo at 0.1 mg/kg [3, 6]: 24%; inhibition in vivo at 1 mg/kg [3, 7]: 48%
O=S(=O)(O)CCCCN1CCN(C(c2ccc(F)cc2)c2ccccn2)CC1 (stereo not shown) [Ref. Ex. 4, 4-[4-[4-fluorophenyl-(2-pyridyl)methyl]-1-piperazinyl]butylsulfonic acid, reference compound] | – | 0 | antiallergic activity / activity of suppressing PCA (in words) ([2]; rat, in vivo): did not show an antiallergic activity
CC(C)c1ccc2oc3nc(N)c(C(=O)O)cc3c(=O)c2c1 [amlexanox, reference compound] | – | – | inhibition in vivo at 3 mg/kg [3, 8]: 38.5%; inhibition in vivo at 10 mg/kg [3, 8]: 38.5%; inhibition in vivo at 30 mg/kg [3, 8]: 50%; inhibition in vivo at 3 mg/kg [3, 9]: 12.1%; inhibition in vivo at 30 mg/kg [3, 9]: 6.1%; suppression of the immediate allergic reaction (in words) [3]: suppressed the immediate allergic reaction; suppression of the late allergic reaction (in words) [3]: did not suppress the late allergic reaction
C[C@@H]1C[C@H]2[C@@H]3CCC4=CC(=O)C=C[C@]4(C)[C@@]3(F)[C@@H](O)C[C@]2(C)[C@@]1(O)C(=O)CO [dexamethasone, reference compound] | – | – | inhibition in vivo at 0.1 mg/kg ([3]; ip, 1 h, 0.1 mg/kg (i.p.), read-out: immediate edema (1 hr) suppression (%)): 32.4%; inhibition in vivo at 1 mg/kg ([3]; ip, 1 h, dexamethasone 1.0 mg/kg, (i.p.) printed only at the 0.1 line, read-out: immediate edema (1 hr) suppression (%)): 32.4%; inhibition in vivo at 3 mg/kg ([3]; ip, 1 h, dexamethasone 3.0 mg/kg, (i.p.) printed only at the 0.1 line, read-out: immediate edema (1 hr) suppression (%)): 11.8%; inhibition in vivo at 0.1 mg/kg ([3]; ip, 24 h, 0.1 mg/kg (i.p.), read-out: late edema (24 hr) suppression (%)): 34.3%; inhibition in vivo at 1 mg/kg ([3]; ip, 24 h, dexamethasone 1.0 mg/kg, (i.p.) printed only at the 0.1 line, read-out: late edema (24 hr) suppression (%)): 42.9%; inhibition in vivo at 3 mg/kg ([3]; ip, 24 h, dexamethasone 3.0 mg/kg, (i.p.) printed only at the 0.1 line, read-out: late edema (24 hr) suppression (%)): 45.7%; suppression of the late allergic reaction (in words) [3]: showed the strong activity of suppressing the late allergic reaction
CN(C)CCOC(c1ccccc1)c1ccccc1 [diphenhydramine, reference compound] | – | – | inhibition in vivo at 3 mg/kg ([3]; 1 h, 3.0 mg/kg, oral, read-out: immediate edema (1 hr) suppression (%)): 17.8%; inhibition in vivo at 10 mg/kg ([3]; 1 h, 10.0 mg/kg, oral, read-out: immediate edema (1 hr) suppression (%)): 13.3%; inhibition in vivo at 30 mg/kg ([3]; 1 h, 30.0 mg/kg, oral, read-out: immediate edema (1 hr) suppression (%)): 53.3%; inhibition in vivo at 30 mg/kg ([3]; 24 h, 30.0 mg/kg, oral, read-out: late edema (24 hr) suppression (%)): 14.3%; suppression of the immediate allergic reaction (in words) [3]: suppressed the immediate allergic reaction; suppression of the late allergic reaction (in words) [3]: did not suppress the late allergic reaction
CN1CCC(=C2c3ccccc3CC(=O)c3sccc32)CC1 [ketotifen, reference compound] | – | – | mouse acute toxicity (lethal dose) (male ICR mice): 500 mg/kg; inhibition in vivo at 2 mg/kg ([2]; Rattus norvegicus, po, 1 h, read-out: % suppression of rat PCA): 47.4 to 73.6%

Now from value to compound, other results behind:

EC50 [1] [µM] | Structure (SMILES) | inhibition in vivo at 10 mg/kg [2, 4] [%] | other results
0.46 | CNS(=O)(=O)CCCCCN1CCN(C(c2ccccc2)c2ccccc2)CC1 [Example 19] | 78 | –
0.56 | CCCNS(=O)(=O)CCCCCCN1CCN(C(c2ccccc2)c2ccc(Cl)cc2)CC1 (stereo not shown) [Example 36] | 77.5 | –
0.4 | CNS(=O)(=O)CCCCCN1CCN(C(c2ccccc2)c2ccc(Cl)cc2)CC1 (stereo not shown) [Example 106] | 90.3 | –
0.62 | CCNS(=O)(=O)CCCCCCCN1CCN(C(c2ccccc2)c2ccc(Cl)cc2)CC1 (stereo not shown) [Example 107] | 87.8 | –
0.71 | O=S(=O)(CCCCN1CCN(C(c2ccccc2)c2ccc(Cl)cc2)CC1)NC1CC1 (stereo not shown) [Example 113] | 87.5 | –
0.56 | O=S(=O)(CCCCCN1CCN(C(c2ccccc2)c2ccc(Cl)cc2)CC1)NC1CC1 (stereo not shown) [Example 114] | 83.5 | –
0.33 | O=S(=O)(CCCCCCN1CCN(C(c2ccccc2)c2ccccn2)CC1)NC1CC1 (stereo not shown) [Example 123] | 83.5 | –
0.3 | O=S(=O)(CCCCCCN1CCN(C(c2ccccc2)c2ccccc2)CC1)NC1CC1 [Example 126] | 80.8 | –
0.41 | O=S(=O)(CCCCCN1CCN(C(c2ccccc2)c2ccc(Cl)cc2)CC1)NC1CCC1 (stereo not shown) [Example 127] | 90.7 | –
0.58 | O=S(=O)(CCCCCCN1CCN(C(c2ccccc2)c2ccccc2)CC1)NC1CCC1 [Example 134] | 87.1 | –
0.21 | O=S(=O)(CCCCCCN1CCN(C(c2ccccc2)c2ccccc2)CC1)NC1CCCC1 [Example 141] | 87.4 | –
0.31 | O=S(=O)(CCCCCCN1CCN(C(c2ccccc2)c2ccccc2)CC1)NC1CCCCC1 [Example 149] | 97.7 | –
